Values quoted from earlier work, collected in article PMC7522491 (Molecular Metabolism, 2020).
Where no end group is shown, it is not given here.

What was measured:
[1] = infusion into the portal circulation, dogs
[2] = administration in mice

Row | Molecule | hepatic insulin clearance [1] | blood insulin levels / insulin clearance [2]
1 | CCCCCCCC/C=C\CCCCCCCC(=O)O [oleate] | suppressed hepatic insulin clearance | –
2 | glucagon-like peptide-1 (HAEGTFTSDVSSYLEGQAAKEFIAWLVKGR; ends and bridges not checked; UniProt P55095 98-127, looked up) [GLP-1, incretin hormone administered in mice (literature)] | – | increased blood insulin levels in part by reducing insulin clearance
